Laboratory results taken from US10265329B2, “Altering steroid metabolism for treatment of steroid-dependent disease” (THE CLEVELAND CLINIC FOUNDATION, priority 2015, dated 2019).

Experiments:
[1] = test system: PSA, TMPRSS2 and FKBP5 expression; assay: Inhibition of androgen-responsive gene expression (qPCR); assay type: cell-based, human
Method: Cells were starved with phenol red-free and serum free-medium for at least 48 h and treated with the indicated drugs and/or androgens. RNA was extracted with a GenElute Mammalian Total RNA miniprep kit (Sigma-Aldrich). cDNA was synthesized from 1 μg RNA in a reverse transcription reaction using the iScript cDNA Synthesis Kit (Bio-Rad, Hercules, Calif.). Quantitative PCR (qPCR) analysis was conducted in triplicate with primers for PSA, TMPRSS2, FKBP5, and RPLPO described previously (Chang et al., Cell, 154:1074-1084 (2013), with an ABI 7500 Real-Time PCR machine (Applied Biosystems) using iTaq Fast SYBR Green Supermix with ROX (Bio-Rad) in 96-well plates at a final reaction volume of 20 μL. Accurate quantitation of each mRNA was achieved by normalizing the sample values to RPLPO and to vehicle-treated cells.

C4-2 xenografts = assay: C4-2 xenograft progression in orchiectomized mice with DHEA pellet; assay type: in vivo; conditions: 0.5 mmol/kg/d i.p.; compared to Abi acetate and enzalutamide
Method: Male NSG mice, 6 to 8 weeks of age were obtained from the Cleveland Clinic Biological Resources Unit facility. All mouse studies were conducted under a protocol approved by the Cleveland Clinic Institutional Animal Care and Use Committee. Sample size was determined based on our prior studies of steroidogenesis inhibition in xenograft models of CRPC. Chang et al., Proc Natl Acad Sci USA., 108:13728-13733 (2011). Criteria for progression were determined based on similar criteria that are utilized for clinical progression. Mice were surgically orchiectomized and implanted with a 5 mg 90-day sustained-release DHEA pellet (Innovative Research of America) to mimic CRPC in the context of human adrenal physiology. Two days later, 10^7 VCaP or C4-2 cells were injected subcutaneously with matrigel. […] Control groups were administered 0.1 mL 5% benzyl alcohol and 95% safflower oil solution via intraperitoneal injection every day. Mice in enzalutamide group were fed with enzalutamide in chow every day (10 mg/Kg/day). Tran et al., Science. 324:787-790 (2009). Treatment was not blinded to the investigator. Tumor volume was measured daily, and time to increase in tumor volume by 20% was determined. […] The significance of the difference between treatment groups was assessed by Kaplan-Meier survival analysis using a log-rank test in SigmaStat 3.5.

[2] = Abi metabolites in sera of patients with CRPC treated with Abi acetate; assay type: in vivo, human; conditions: patients undergoing treatment with Abi acetate
Method: Patient serum collection and drug extraction. Twelve patients with CRPC undergoing treatment with Abi acetate were consented under an Institutional Review Board—approved protocol (Case 7813). Blood was collected using Vacutainer Plus serum blood collection tubes (#BD367814, Becton Dickenson, Franklin Lakes, N.J.). Blood was collected between 2 and 14 hours after the 1000 mg daily dose of Abi acetate was administered. Blood was allowed to clot and tubes were centrifuged at 2500 RPM for 10 minutes. Serum aliquots were frozen at −80° C. until processing. Drug metabolites and internal standard (d4-cortisol, CDN isotopes Pointe-Claire, Quebec Canada) were extracted from 200 μL of patient serum with methyl tert-butyl ether (Sigma Aldrich, St. Louis, Mo.), evaporated under a stream of nitrogen gas and reconstituted in methanol prior to mass spectrometry analysis.
Patient serum analysis. Blood was obtained from prostate cancer patients with consent under a protocol approved by the Cleveland Clinic Institutional Review Board. Samples were analyzed on a ultra high-performance liquid chromatography station (Shimadzu, Kyoto, Japan) with a DGU-20A3R degasser, 2 LC-30AD pumps, a SIL-30AC autosampler, a CTO-10A column oven and a CBM-20A system controller in tandem with a QTRAP 5500 mass spectrometer (AB Sciex, Framingham, Mass.). […]

## C[C@]12CCC(=O)C=C1CC[C@@H]1[C@@H]2CC[C@]2(C)C(c3cccnc3)=CC[C@@H]12 [Compound D4A, 17-(3-Pyridyl)androsta-4,16-dien-3-one]
[1]; induced by DHT, DHEA and R1881, LNCAP, LAPC4 and C4-2 cell lines
  suppression of PSA, TMPRSS2 and FKBP5 expression compared to Abi: clearly better suppresses
[1]; mutant and wild-type AR (LNCaP and LAPC4)
  inhibition of DHT-induced endogenous PSA expression: equivalent to enzalutamide
C4-2 xenografts
  progression-free survival: increased progression-free survival
[2]
  detection in sera of patients with CRPC: detectable
